According to paper PMC6594751, “The mechanism of error induction by the antibiotic viomycin provides insight into the fidelity mechanism of translation” (eLife, 2019):
Like-named read-outs stand apart in the source and are kept apart here.

What was measured:
[1] = test system: 70S ribosomes displaying cognate (UUC) or near-cognate (CUC) codon in the A site; experiment: GTP hydrolysis by EF-Tu in ternary complex (initial codon selection), quench-flow; format: biochemical, E. coli
Excerpt: (§1) To study the impact of viomycin on translational accuracy, we designed experiments to measure its effect on the kinetic efficiency ( kcat/KM ) of GTP hydrolysis by EF-Tu and peptide bond formation for both cognate and near-cognate codon-anticodon interactions. A reaction mixture containing varying concentrations of viomycin and Phe-tRNAGAAPhe in TC with EF-Tu·GTP was rapidly mixed in a quench-flow instrument with initiated 70S ribosomes displaying either cognate (UUC) or near-cognate (CUC) codons in the A site. For studying GTP hydrolysis, the TCs contained [^3H]GTP and the 70S ribosomes had non-radioactive fMet-tRNA^fMet in the P site, while for studying peptide bond formation the TCs contained non-radioactive GTP and the 70S ribosomes had f[^3H]Met-tRNA^fMet bound in the P site. The reactions were stopped at different times by addition of formic acid and the relative amounts of the reaction products were analyzed by ion-exchange chromatography ([^3H]GDP) or RP-HPLC (f[^3H]Met-Phe) with on-line radiation detection.
(§2) All experiments were performed at 37°C in HEPES-polymix buffer (95 mM KCl, 5 mM NH4Cl, 0.5 mM CaCl2, 8 mM putrescine, 1 mM spermidine, 5 mM Mg(OAc)2, 1 mM dithioerythritol and 5 mM HEPES pH 7.5). All reaction mixes contained 10 mM phosphoenolpyruvate (PEP), 1 µg/ml pyruvate kinase (PK) and 0.1 µg/ml myokinase (MK). His-tagged initiation factors IF1, IF2 and IF3, elongation factor Ts, and phenylalanine and leucine aminoacyl tRNA-synthetases were purified using nickel-affinity chromatography (HisTrap GE Healthcare). Wild-type elongation factor Tu was prepared as in [Ehrenberg et al. (1990)]. All protein concentrations were determined using the Bradford assay. Ribosomes (E. coli MRE600) and f[^3H]Met-tRNA^fMet were prepared according to [Antoun et al. (2004)]; ribosome concentration was determined spectrophotometrically. XR7 mRNAs with coding sequences AUG-UUC, AUG-CUC, AUG-UAC and AUG-UUA were prepared as in [Borg and Ehrenberg (2015)], see theGV Appendix I for full mRNA sequences. tRNA^Phe was prepared as in [Holm et al. (2016)]. [^3H]Met and [^3H]GTP were from Perkin-Elmer, viomycin was from USP, all other chemicals were from either Merck or Sigma-Aldrich.
Two mixtures were prepared. The ribosome mixture contained 70S ribosomes (1.0–2.0 µM), IF1, IF2 and IF3 (2 µM each), fMet-tRNA^fMet(1.5–3.0 µM), mRNA (3 µM), GTP (1 mM) and ATP (1 mM). The TC mixture contained EF-Tu (0.3–0.6 µM), phenylalanine (200 µM), PheRS (0.5 µM), tRNA^Phe (2 µM), viomycin (0–2000 µM), [^3H]GTP (0.3–0.6 µM) and ATP (2 mM). After 15 min incubation at 37°C, equal volumes of the two mixes were rapidly mixed and the reaction quenched at different time points with formic acid (17% final concentration) using a quench-flow instrument (RQF-3 KinTek corp.). After quenching, the samples were centrifuged at 20,800 g. The supernatant, containing the [^3H]GTP and [^3H]GDP was analyzed by anion exchange chromatography with on-line scintillation counting (β-RAM model 4 IN/US systems). A Mono-Q GL column (GE Healthcare) was used and the mobile phase was a multistep gradient of 0–2 M NaCl in 20 mM Tris (pH 7.5).
Reaction rates were estimated by fitting of single exponential functions to the experimental time courses except for the GTP hydrolysis reactions without viomycin on near-cognate codons which were analyzed as in [Johansson et al. (2012)]. kcat/KM values were estimated by fitting of the Michaelis-Menten equation to plots of reaction rates versus concentration. […]

[2] = test system: 70S ribosomes displaying cognate UUC or near-cognate codons CUC, AUC, UAC or UUA in the A site; experiment: f[^3H]Met-Phe dipeptide formation, quench-flow; format: biochemical, E. coli
Excerpt: as §1
The model presented above predicts that viomycin sensitivity ( KInc ) for any codon·anticodon pair depends on the accuracy of initial codon selection as defined by the product of the near-cognate back reaction rate constants q3nc and q4nc (Equations 4 and 5) in the absence as well as presence of viomycin. […] To test this prediction, we measured how the kcat/KM of dipeptide formation varied with viomycin concentration for tRNAGAAPhe reading three additional near-cognate codons (Figure 4A); AUC, UAC or UUA (the underlined base differs from the cognate codon UUC). We quantified the viomycin sensitivity of each codon by estimating its KI value by fitting of Equation 4 to plots of kcat/KM versus viomycin concentration (Figure 4B). We also estimated the accuracies of initial selection by measuring kcat/KM for GTP hydrolysis with the three codons in the absence of viomycin. Both sets of experiments were carried out exactly as described above.
as §2
Two mixtures were prepared. The ribosome mixture contained 70S ribosomes (0.5 µM), IF1, IF2 and IF3 (1 µM each), f[^3H]Met-tRNA^fMet (1 µM), mRNA (2 µM), GTP (1 mM) and ATP (1 mM). The TC mixture contained EF-Tu (1–10 µM), EF-Ts (1 µM), phenylalanine (200 µM), PheRS (0.5 µM), tRNA^Phe (12 µM), viomycin (0–2000 µM), GTP (1 mM) and ATP (1 mM). After 15 min incubation at 37°C, equal volumes of the two mixes were rapidly mixed and the reaction quenched at different time points with formic acid (17% final concentration) using a quench-flow instrument (RQF-3 KinTek corp.). After quenching, the samples were centrifuged at 20,800 g and the supernatant discarded. The pellet was dissolved in 165 µl 0.5 M KOH to cleave the peptides from the tRNA. […]

[3] = test system: TC^H84A on 70S ribosomes displaying cognate UUC or near-cognate CUC codon; experiment: EF-Tu^H84A chase experiments (ternary complex dissociation from the A site); format: biochemical, E. coli; details: 37°C
Excerpt: To address whether viomycin also stabilizes TCs in the A site during initial codon selection, we estimated the rate of dissociation of both cognate and near-cognate tRNAs in TC (TC ^H84A) with a GTPase-deficient mutant of EF-Tu (EF-Tu^H84A). In this EF-Tu mutant, an essential histidine in the G-domain has been replaced by alanine ([Daviter et al., 2003]), but formation of TC ^H84A is unhindered and the mutant TC carries out all partial reactions during initial codon selection, excluding GTP hydrolysis ([Daviter et al., 2003]; [Gromadski and Rodnina, 2004]). Initiated 70S ribosomes with f[^3H]Met-tRNA^fMet in the P site and a cognate (UUC) or near-cognate (CUC) codon in the A site were equilibrated with TC^H84A containing Phe-tRNAGAAPhe and GTP in the presence of varying concentrations of viomycin. TC^H84As were chased from the A site by addition of GTPase proficient TC, containing WT EF-Tu (EF-Tu^WT) and either Phe-tRNAGAAPhe or Leu-tRNAGAGLeu2 , whichever was cognate for the codon in the A site. The dissociation rate for TC^H84A s from the A site, defined as the inverse of the average dissociation time, was then estimated from the rate of f[^3H]Met-Phe or f[^3H]Met-Leu formation (supplementary methods).
as §2
The wild type tufA gene from E. coli Mg1655 was cloned in the pET21b vector with a C-terminal hexahistidine tag. Using this construct, the Histidine at position 84 was changed to Alanine by following the standard protocol from the QIAGEN site directed mutagenesis kit. Successful mutation was confirmed by DNA sequencing. […]

mRNA translocation = details: ref Holm et al., 2016; Modolell and Vázquez, 1977; cited from earlier work
ribosome = details: ref Holm et al., 2016; cited from earlier work
Excerpt: From these structures it seems likely that association of viomycin to the ribosome requires bases A1492 and A1493 in their flipped-out conformation and that the presence of viomycin on the ribosome will effectively block the monitoring bases from re ...

[4] = test system: peptidyl-tRNA in the ribosomal A site; details: ref Holm et al., 2016; Peske et al., 2004; cited from earlier work
tRNA selection = test system: tRNA selection; design: method as in Marrero et al., 1980; details: ref Marrero et al., 1980; cited from earlier work
[5] = CUC vs UUC, 1 mM viomycin vs absence of viomycin

viomycin
reduction in the accuracy of initial codon selection [1, 5]: 170 fold | kcat/KM of cognate GTP hydrolysis (average over 0 to 1 mM viomycin) ([1]; cognate UUC codon, Phe-tRNA^Phe TC, viomycin 0 to 1 mM, HEPES-polymix pH 7.5, 37°C, error SEM): 4.1e+07 ± 600000 M⁻¹ s⁻¹ | effect of viomycin on kcat/KM of cognate GTP hydrolysis ([1]; cognate UUC codon, viomycin 0 to 1 mM, 37°C): did not change with increasing viomycin concentration | kcat/KM of near-cognate GTP hydrolysis ([1]; near-cognate CUC codon, 1 mM viomycin (0.053 ± 0.005 in the absence of viomycin), HEPES-polymix pH 7.5, 37°C, error SEM): 9.2e+06 ± 700000 M⁻¹ s⁻¹ | Ki ([1]; tRNA^Phe(GAA) reading near-cognate codon CUC, fit of Equation 4 (Figure 1B), 37°C, read-out: KI (viomycin concentration at which accuracy has decreased to two), from GTP hydrolysis): 3.1 ± 0.2 mM | total accuracy ([2]; CUC vs UUC, 1 mM viomycin (83,500 ± 8000 without viomycin)): 4.0 ± 0.3 | reduction in total accuracy [2, 5]: 21,000 fold | correlation of accuracy of initial selection with viomycin KI ([2]; codons CUC, AUC, UAC, UUA (Figure 4C)): clear correlation between the two | effect of viomycin on kcat/KM of cognate dipeptide formation ([2]; cognate UUC codon, 37°C): did not change with the addition of viomycin | kcat/KM of cognate dipeptide formation (average over viomycin concentrations) ([2]; cognate UUC codon, HEPES-polymix pH 7.5, 37°C, error SEM): 3.83e+07 ± 700000 M⁻¹ s⁻¹ | kcat/KM of near-cognate dipeptide formation ([2]; near-cognate CUC codon, 1 mM viomycin (0.0005 ± 0.00004 in the absence of viomycin), HEPES-polymix pH 7.5, 37°C, error SEM): 9.4e+06 ± 800000 M⁻¹ s⁻¹ | kcat/KM of near-cognate GTP hydrolysis compared with dipeptide formation ([2]; near-cognate CUC codon, all tested viomycin concentrations): virtually identical | viomycin concentration required to double the rate at which tRNA^Phe reads the codon CUC ([2]; near-cognate CUC, from in vitro experiments): 80 ± 8 nM | proofreading selection by viomycin-bound ribosomes ([2]; near-cognate, proofreading accuracy 115 ± 15 in the absence of viomycin): incapable of performing proofreading selection | Ki ([2]; tRNA^Phe(GAA) reading near-cognate codon AUC (first position mismatch), fit of Equation 4, accuracy of initial selection 2400 ± 120 without viomycin, read-out: KI from dipeptide formation, AUC): 7 ± 0.3 mM | Ki ([2]; tRNA^Phe(GAA) reading near-cognate codon CUC, fit of Equation 4 (Figure 1D), 37°C, read-out: KI (viomycin concentration at which accuracy has decreased to two), from dipeptide formation, CUC): 3.3 ± 0.1 mM | Ki ([2]; tRNA^Phe(GAA) reading near-cognate codon UAC (second position mismatch), fit of Equation 4, accuracy of initial selection 6400 ± 670 without viomycin, read-out: KI from dipeptide formation, UAC): 29 ± 2.7 mM | Ki ([2]; tRNA^Phe(GAA) reading near-cognate codon UUA (third position mismatch), fit of Equation 4, accuracy of initial selection 580 ± 47 without viomycin, read-out: KI from dipeptide formation, UUA): 3.25 ± 0.2 mM | rate of TC^H84A dissociation, cognate, 1 µM viomycin ([3]; cognate UUC codon, 1 µM viomycin (1.21 ± 0.088 in the absence of viomycin), pH 7.5): 0.616 ± 0.044 s⁻¹ | rate of TC^H84A dissociation, cognate, 10 µM viomycin ([3]; cognate UUC codon, 10 µM viomycin (1.21 ± 0.088 in the absence of viomycin), pH 7.5): 0.198 ± 0.0275 s⁻¹ | apparent near-cognate TC^H84A dissociation rate, 200 µM viomycin ([3]; near-cognate CUC codon, 200 µM viomycin, pH 7.5): 0.209 ± 0.066 s⁻¹ | Ki ([3]; tRNA^Phe(GAA) reading cognate codon UUC, linear fit of Equation 6 to dissociation mean times (Figure 2B), read-out: KI^c (viomycin concentration at which rate of viomycin rebinding to TC-bound ribosome equals rate of TC dissociation unhindered by rebinding)): 0.0094 ± 0.0033 mM | effect on rate of mRNA translocation (mRNA translocation): reduces the rate of mRNA translocation | effect of A-site-bound tRNA on affinity of viomycin for the ribosome (ribosome): A-site-bound tRNA greatly increases the affinity of viomycin for the ribosome | stabilization of peptidyl-tRNA in the ribosomal A site [4]: strongly stabilize peptidyl-tRNA in the ribosomal A site | effect on fidelity of tRNA selection (tRNA selection): impairs the fidelity of tRNA selection
